# According to the NIST ThermoML archive (doi:10.1007/s10765-015-1980-6):
# Numbers after ± are expanded uncertainties.
# Experiments:
# [1] = xn = mol fraction of the nth substance listed; details: 101 kPa, Liquid; for speed of sound: Frequency=2 MHz; for mass density: Pycnometric method
# [2] = 101 kPa, Liquid; for speed of sound: Frequency=2 MHz; for mass density: Pycnometric method
# [3] = 298.15 K, Linear variable-path acoustic interferometer
# [4] = 303.15 K, Linear variable-path acoustic interferometer
# [5] = 308.15 K, Linear variable-path acoustic interferometer
# [6] = 313.15 K, Linear variable-path acoustic interferometer
smiles,measurement,setting,value
CCCCO [butan-1-ol] + OCCOCCO,speed of sound,"[1]; 298.15 K, x2 = 0",1241.1 ± 6.7 m/s
same,mass density,"[1]; 298.15 K, x2 = 0",805.6 ± 0.6 kg/m3
same,speed of sound,"[1]; 303.15 K, x2 = 0",1223.8 ± 6.6 m/s
same,mass density,"[1]; 303.15 K, x2 = 0",801.9 ± 0.6 kg/m3
same,speed of sound,"[1]; 308.15 K, x2 = 0",1205.8 ± 6.5 m/s
same,mass density,"[1]; 308.15 K, x2 = 0",798.2 ± 0.6 kg/m3
same,speed of sound,"[1]; 313.15 K, x2 = 0",1188.8 ± 6.4 m/s
same,mass density,"[1]; 313.15 K, x2 = 0",794.5 ± 0.6 kg/m3
OCCOCCO [diethylene glycol],speed of sound,[2]; 298.15 K,1579.3 ± 8.5 m/s
same,mass density,[2]; 298.15 K,1112.7 ± 0.7 kg/m3
same,speed of sound,[2]; 303.15 K,1568 ± 8.4 m/s
same,mass density,[2]; 303.15 K,1109.3 ± 0.7 kg/m3
same,speed of sound,[2]; 308.15 K,1557.3 ± 8.3 m/s
same,mass density,[2]; 308.15 K,1105.9 ± 0.7 kg/m3
same,speed of sound,[2]; 313.15 K,1546.1 ± 8.3 m/s
same,mass density,[2]; 313.15 K,1102.5 ± 0.7 kg/m3
OCCOCCO [diethylene glycol] + OCCCCO,speed of sound,"[1]; 298.15 K, Linear variable-path acoustic interferometer, x1 = 1",1579.3 ± 8.1 m/s
same,mass density,"[1]; 298.15 K, x1 = 1",1112.7 ± 0.7 kg/m3
same,speed of sound,"[1]; 303.15 K, Linear variable-path acoustic interferometer, x1 = 1",1568 ± 8 m/s
same,mass density,"[1]; 303.15 K, x1 = 1",1109.3 ± 0.7 kg/m3
same,speed of sound,"[1]; 308.15 K, Linear variable-path acoustic interferometer, x1 = 1",1557.3 ± 8 m/s
same,mass density,"[1]; 308.15 K, x1 = 1",1105.9 ± 0.7 kg/m3
same,speed of sound,"[1]; 313.15 K, Linear variable-path acoustic interferometer, x1 = 1",1546.1 ± 7.9 m/s
same,mass density,"[1]; 313.15 K, x1 = 1",1102.5 ± 0.7 kg/m3
CCC(C)O (stereo unspecified) [butan-2-ol] + OCCOCCO,speed of sound,"[1]; 298.15 K, Linear variable-path acoustic interferometer, x2 = 0",1212.2 ± 6.2 m/s
same,mass density,"[1]; 298.15 K, x2 = 0",802.4 ± 0.6 kg/m3
same,speed of sound,"[1]; 303.15 K, Linear variable-path acoustic interferometer, x2 = 0",1194.1 ± 6.1 m/s
same,mass density,"[1]; 303.15 K, x2 = 0",798.3 ± 0.7 kg/m3
same,speed of sound,"[1]; 308.15 K, Linear variable-path acoustic interferometer, x2 = 0",1175.3 ± 6 m/s
same,mass density,"[1]; 308.15 K, x2 = 0",794.2 ± 0.7 kg/m3
same,speed of sound,"[1]; 313.15 K, Linear variable-path acoustic interferometer, x2 = 0",1157.4 ± 5.9 m/s
same,mass density,"[1]; 313.15 K, x2 = 0",790.1 ± 0.7 kg/m3
"OCCCCO [1,4-butanediol]",speed of sound,[2]; [3],1601.6 ± 8.2 m/s
same,mass density,[2]; 298.15 K,1012.6 ± 0.6 kg/m3
same,speed of sound,[2]; [4],1589.3 ± 8.1 m/s
same,mass density,[2]; 303.15 K,1009.6 ± 0.6 kg/m3
same,speed of sound,[2]; [5],1577.7 ± 8 m/s
same,mass density,[2]; 308.15 K,1006.7 ± 0.6 kg/m3
same,speed of sound,[2]; [6],1565.6 ± 8 m/s
same,mass density,[2]; 313.15 K,1003.7 ± 0.6 kg/m3
CCCCO [butan-1-ol],speed of sound,[2]; 298.15 K,1241.1 ± 6.7 m/s
same,mass density,[2]; 298.15 K,805.6 ± 0.6 kg/m3
same,speed of sound,[2]; 303.15 K,1223.8 ± 6.6 m/s
same,mass density,[2]; 303.15 K,801.9 ± 0.6 kg/m3
same,speed of sound,[2]; 308.15 K,1205.8 ± 6.5 m/s
same,mass density,[2]; 308.15 K,798.2 ± 0.6 kg/m3
same,speed of sound,[2]; 313.15 K,1188.8 ± 6.4 m/s
same,mass density,[2]; 313.15 K,794.5 ± 0.6 kg/m3
CCC(C)O (stereo unspecified) [butan-2-ol],speed of sound,[2]; [3],1212.2 ± 6.2 m/s
same,mass density,[2]; 298.15 K,802.4 ± 0.6 kg/m3
same,speed of sound,[2]; [4],1194.1 ± 6.1 m/s
same,mass density,[2]; 303.15 K,798.3 ± 0.7 kg/m3
same,speed of sound,[2]; [5],1175.3 ± 6 m/s
same,mass density,[2]; 308.15 K,794.2 ± 0.7 kg/m3
same,speed of sound,[2]; [6],1157.4 ± 5.9 m/s
same,mass density,[2]; 313.15 K,790.1 ± 0.7 kg/m3
